Structures can show the parent of a compound that is named as a salt. Where two headings read alike, the source gives them in different places.

Experiment [1] deals with T1, BIR3 domain of human XIAP (Homo sapiens, UniProt P98170).
T1 construct: BIR3 domain of human XIAP (residues 252-350) fused to a His-tag; His-tag (cleaved yes); made in house; host or cells: Escherichia coli
Kind of experiment: XIAP in vitro competitive displacement binding assay (fluorescence polarization). As to conditions: for Xiap IC50 or PI μM (PI) / inhibition at 0.04 µM: PI at 0.04 μM; for inhibition at 0.04 µM: 1 h, read-out: Xiap IC50 or PI μM (PI).

For experiment [2], the target named is T2, BIR3 domain of human cIAP-1 (Homo sapiens, UniProt Q13490).
T2 construct: human cIAP-1 (residues 267-363) fused to a GST-tag; GST-tag (cleaved yes); made in house; host or cells: Escherichia coli
Kind of experiment: cIAP-1 in vitro competitive displacement binding assay (fluorescence polarization). As to conditions: PI at […].

For experiment [3], the system named is EVSA-T (human breast carcinoma). Put plainly: Anti-proliferative activity, Alamar Blue assay, EVSA-T. Type of experiment: cell-based. Background: Alamar Blue is a resazurin reagent that responds to reducing activity.
Setting [4] is: EVSA-T cells, 72 hours, Alamar Blue, dihydrochloride, read-out: EVSA-T prolif.
Where [5] appears, read: plain number = IC50, average where more than one data point, read-out: Xiap IC50 or PI μM (IC50).
The mark [6] stands for this setting: Homo sapiens, EVSA-T, 72 h, EVSA-T cells, 72 hours, Alamar Blue, read-out: EVSA-T prolif.
The mark [7] stands for this setting: Homo sapiens, EVSA-T, read-out: EC50 in EVSA-T cell line assays.

T1 sequence (P98170 252-350): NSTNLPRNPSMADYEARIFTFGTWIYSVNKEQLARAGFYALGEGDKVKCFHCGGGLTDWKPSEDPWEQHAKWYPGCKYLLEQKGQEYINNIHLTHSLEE
T2 sequence (Q13490 267-363): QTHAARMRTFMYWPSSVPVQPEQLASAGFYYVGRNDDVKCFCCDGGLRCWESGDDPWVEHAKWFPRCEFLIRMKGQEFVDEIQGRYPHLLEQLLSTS

Turning to `C[C@@H]1CN(CC(=O)N2CC(C)(C)c3ncc(C(O)c4ccccc4F)cc32)[C@@H](CN2[C@H](C)COC[C@H]2C)CN1` (single isomer, unassigned) [Example 108, 2-[(2R,5R)-2-{[(3R,5R)-3,5-Dimethylmorpholin-4-yl]methyl}-5-methylpiperazin-1-yl]-1-{6-[(R or S)-(2-fluorophenyl)-(hydroxy)methyl]-3,3-dimethyl-1H,2H,3H-pyrrolo[3,2-b]pyridin-1-yl}ethan-1-one dihydrochloride], in experiment [1] (60 min, dihydrochloride, 0.04 µM), the “Xiap IC50 or PI μM (PI)” value was determined as 66%@0.04. Further, in experiment [2] (180 min, dihydrochloride, […]), the “cIAP1 IC50 or PI μM (PI)” value amounted to 97%@0.012. For the same compound, the EC50 in experiment [3] (setting [4]) came out at 2.7 nM.

Take `C[C@@H]1CN(CC(=O)N2CC(C)(C)c3cnc(Cc4ccc(F)cc4)cc32)[C@@H](CN2CCOC[C@]2(C)CO)CN1.Cl.Cl` [Example 61, 1-{6-[(4-Fluorophenyl)methyl]-3,3-dimethyl-1H,2H,3H-pyrrolo[3,2-c]pyridin-1-yl}-2-[(2R,5R)-2-{[(3S)-3-(hydroxymethyl)-3-methylmorpholin-4-yl]methyl}-5-methylpiperazin-1-yl]ethan-1-one, dihydrochloride]: the “Xiap IC50 or PI μM (PI)” value in experiment [1] came out at 57%@0.04. In addition, the “cIAP1 IC50 or PI μM (PI)” value in experiment [2] came to 99%@0.012. Besides, the EC50 in experiment [3] (EVSA-T cells, 72 hours, Alamar Blue, read-out: EVSA-T prolif) stood at 6 nM.

Broadly, the IC50 is the midpoint of a concentration-inhibition curve. `C[C@@H]1CN(CC(=O)N2CC(C)(C)c3ncc(Cc4ccc(F)cc4)cc32)[C@@H](CN2CCCNC(=O)C2)CN1` [Example 46, 4-{[(2R,5R)-1-(2-{6-[(4-Fluorophenyl)methyl]-3,3-dimethyl-1H,2H,3H-pyrrolo[3,2-b]pyridin-1-yl}-2-oxoethyl)-5-methylpiperazin-2-yl]methyl}-1,4-diazepan-2-one, dihydrochloride]: in experiment [1] (setting [5]), the IC50 was 0.13 µM. Moreover, the EC50 in experiment [3] (setting [6]) is 36 nM; in experiment [3] (setting [7]) it was less than 1000 nM.

Turning to `C[C@@H]1CN(CC(=O)N2CC(C)(C)c3nnc(Cc4ccc(F)cc4F)cc32)[C@@H](CN2[C@H](C)COC[C@H]2C)CN1` [Example 88, 1-{3-[(2,4-Difluorophenyl)methyl]-7,7-dimethyl-5H,6H,7H-pyrrolo[3,2-c]pyridazin-5-yl}-2-[(2R,5R)-2-{[(3R,5R)-3,5-dimethymorpholin-4-yl]methyl}-5-methylpiperazin-1-yl]ethan-1-one dihydrochloride], the IC50 in experiment [1] (setting [5]) was found to be 0.22 µM. Further, the EC50 in experiment [3] (setting [6]) was 0.24 nM; in experiment [3] (setting [7]), less than 1000 nM.

As for `C[C@@H]1CN(CC(=O)N2CC(C)(C)c3ncc(Cc4ccc(F)cc4)cc32)[C@@H](CN2CCOC[C@@]2(C)CO)CN1` [Example 51, 1-{6-[(4-Fluorophenyl)methyl]-3,3-dimethyl-1H,2H,3H-pyrrolo[3,2-b]pyridin-1-yl}-2-[(2R,5R)-2-{[(3R)-3-(hydroxymethyl)-3-methylmorpholin-4-yl]methyl}-5-methylpiperazin-1-yl]ethan-1-one, dihydrochloride], the inhibition at 0.04 µM in experiment [1] is 44%. The values for the EC50 in experiment [3] (setting [6]) and in experiment [3] (setting [7]) were 2.2 nM and less than 1000 nM, respectively.

For `C[C@@H]1CN(CC(=O)N2CC(C)(C)c3ccc(Cc4ccc(F)cc4)cc32)[C@@H](CN2[C@H](C)COC[C@H]2C)CN1` [Example 49, 2-[(2R,5R)-2-{[(3R,5R)-3,5-Dimethylmorpholin-4-yl]methyl}-5-methylpiperazin-1-yl]-1-{6-[(4-fluorophenyl)methyl]-3,3-dimethyl-2,3-dihydro-1H-indol-1-yl]ethan-1-one, dihydrochloride], the inhibition at 0.04 µM in experiment [1] stood at 44%. Further, the figures for the EC50 in experiment [3] (setting [6]) and in experiment [3] (setting [7]) were 1.1 nM and less than 1000 nM, respectively.

With `C[C@@H]1CN(CC(=O)N2CC(C)(C)c3ncc(Cc4ccc(F)cc4)cc32)[C@@H](CN2CCNC(=O)C2)CN1` [Example 42, 4-{[(2R,5R)-1-(2-{6-[(4-Fluorophenyl)methyl]-3,3-dimethyl-1H,2H,3H-pyrrolo[3,2-b]pyridin-1-yl}-2-oxoethyl)-5-methylpiperazin-2-yl]methyl}piperazin-2-one dihydrochloride], the inhibition at 0.04 µM in experiment [1] came out at 44%. Besides, the EC50 is 11 nM in experiment [3] (setting [6]) and less than 1000 nM in experiment [3] (setting [7]).

Take `C[C@@H]1CN(CC(=O)N2CC(C)(C)c3ncc(Cc4ccc(F)cc4)cc32)[C@@H](CN2CCOC[C@]2(C)CO)CN1` [Example 50, 1-{6-[(4-Fluorophenyl)methyl]-3,3-dimethyl-1H,2H,3H-pyrrolo[3,2-b]pyridin-1-yl}-2-[(2R,5R)-2-{[(3S)-3-(hydroxymethyl)-3-methylmorpholin-4-yl]methyl}-5-methylpiperazin-1-yl]ethan-1-one, dihydrochloride]: in experiment [1], the inhibition at 0.04 µM came to 44%. The EC50 was 1.3 nM in experiment [3] (setting [6]) and less than 1000 nM in experiment [3] (setting [7]).

As to `C[C@@H]1CN(CC(=O)N2CC(C)(C)c3ncc(Cc4ccc(F)cc4)cc32)[C@@H](CN2CCC[C@@H]2C(F)(F)F)CN1` [Example 38, 1-{6-[(4-Fluorophenyl)methyl]-3,3-dimethyl-1H,2H,3H-pyrrolo[3,2-b]pyridin-1-yl}-2-[(2R,5R)-5-methyl-2-{[(2R)-2-(trifluoromethyl)pyrrolidin-1-yl]methyl}piperazin-1-yl]ethan-1-one], the IC50 in experiment [1] (setting [5]) was 0.48 µM. Besides, the EC50 in experiment [3] (setting [6]) was 34 nM; in experiment [3] (setting [7]), less than 1000 nM.

For the compound `C[C@@H]1CN(CC(=O)N2CC(C)(C)c3cnc(Cc4ccc(F)cc4)cc32)[C@@H](CN2CCOC[C@@]2(C)CO)CN1` [Example 62, 1-{6-[(4-Fluorophenyl)methyl]-3,3-dimethyl-1H,2H,3H-pyrrolo[3,2-c]pyridin-1-yl}-2-[(2R,5R)-2-{[(3R)-3-(hydroxymethyl)-3-methylmorpholin-4-yl]methyl}-5-methylpiperazin-1-yl]ethan-1-one, dihydrochloride], in experiment [1], the inhibition at 0.04 µM is 60%. In addition, the EC50 is 1.1 nM in experiment [3] (setting [6]) and less than 1000 nM in experiment [3] (setting [7]).

For `C[C@@H]1CN(CC(=O)N2CC(C)(C)c3ncc(Cc4ccc(F)cc4)cc32)[C@@H](CN2CCOC[C@H]2CO)CN1` [Example 2, 1-{6-[(4-Fluorophenyl)methyl]-3,3-dimethyl-1H,2H,3H-pyrrolo[3,2-b]pyridin-1-yl}-2-[(2R,5R)-2-{[(3R)-3-(hydroxymethyl)morpholin-4-yl]methyl}-5-methylpiperazin-1-yl]ethan-1-one dihydrochloride], in experiment [1], the inhibition at 0.04 µM was 40%. Besides, the EC50 is 1.7 nM in experiment [3] (setting [6]) and less than 1000 nM in experiment [3] (setting [7]).

For `C[C@@H]1CN(CC(=O)N2CC(C)(C)c3ncc(C(O)c4cccc(F)c4)cc32)[C@@H](CN2[C@H](C)COC[C@H]2C)CN1` (single isomer, unassigned) [Example 105, 2-[(2R,5R)-2-{[(3R,5R)-3,5-Dimethylmorpholin-4-yl]methyl}-5-methylpiperazin-1-yl]-1-{6-[(R or S)-(3-fluorophenyl)-(hydroxy)methyl]-3,3-dimethyl-1H,2H,3H-pyrrolo[3,2-b]pyridin-1-yl}ethan-1-one dihydrochloride], in experiment [1], the inhibition at 0.04 µM amounted to 60%. Moreover, the values for the EC50 in experiment [3] (setting [4]) and in experiment [3] (setting [7]) were 35 nM and less than 1000 nM, respectively.

For the compound `C[C@@H]1CN(CC(=O)N2CC(C)(C)c3ncc(C(O)c4ccccc4F)cc32)[C@@H](CN2[C@H](C)COC[C@H]2C)CN1` (single isomer, unassigned) [Example 107, 2-[(2R,5R)-2-{[(3R,5R)-3,5-Dimethylmorpholin-4-yl]methyl}-5-methylpiperazin-1-yl]-1-{6-[(R or S)-(2-fluorophenyl)-(hydroxy)methyl]-3,3-dimethyl-1H,2H,3H-pyrrolo[3,2-b]pyridin-1-yl}ethan-1-one dihydrochloride], the inhibition at 0.04 µM in experiment [1] came out at 57%. The EC50 was 7.1 nM in experiment [3] (setting [4]) and less than 1000 nM in experiment [3] (setting [7]).

On to `CCCC(F)(F)c1cc2c(cn1)C(C)(C)CN2C(=O)CN1C[C@@H](C)NC[C@@H]1CN1[C@H](C)COC[C@H]1C` [Example 44, 1-[6-(1,1-Difluorobutyl)-3,3-dimethyl-1H,2H,3H-pyrrolo[3,2-c]pyridin-1-yl]-2-[2R,5R)-2-{[(3R,5R)-3,5-dimethylmorpholin-4-yl]methyl}-5-methylpiperazin-1-yl]ethan-1-one, dihydrochloride], for which the inhibition at 0.04 µM in experiment [1] was 78%. Besides, the EC50 in experiment [3] (setting [6]) is 1 nM; in experiment [3] (setting [7]), less than 1000 nM.

As for `C[C@@H]1CN(CC(=O)N2CC(C)(C)c3ncc(Cc4ccc(F)cc4)cc32)[C@@H](CN2CCNC(=O)[C@H]2C)CN1` [Example 35, (3R)-4-{[(2R,5R)-1-(2-{6-[(4-Fluorophenyl)methyl]-3,3-dimethyl-1H,2H,3H-pyrrolo[3,2-b]pyridin-1-yl}-2-oxoethyl)-5-methylpiperazin-2-yl]methyl}-3-methylpiperazin-2-one], the inhibition at 0.04 µM in experiment [1] is 54%. Moreover, the IC50 in experiment [1] (or at least 50% inhibition of the activity at 0.1 μM, read-out: IC50 in the XIAP assay) was less than 0.1 µM. For the same compound, the EC50 in experiment [3] (setting [6]) is 1.9 nM; in experiment [3] (setting [7]), less than 1000 nM.

On to `CCCC(F)(F)c1cc2c(cn1)C(C)(C)CN2C(=O)CN1C[C@@H](C)NC[C@@H]1CN1CCN(C(C)=O)C[C@H]1C` [Example 60, 2-[(2R,5R)-2-{[(2R)-4-Acetyl-2-methylpiperazin-1-yl]methyl}-5-methylpiperazin-1-yl]-1-[6-(1,1-difluorobutyl)-3,3-dimethyl-1H,2H,3H-pyrrolo[3,2-c]pyridin-1-yl]ethan-1-one, dihydrochloride], for which, in experiment [1], the inhibition at 0.04 µM was determined as 74%. Moreover, the EC50 in experiment [3] (setting [6]) was 6.7 nM; in experiment [3] (setting [7]), less than 1000 nM.

Values taken from patent US9980973B2, “Bicyclic heterocycle compounds and their uses in therapy” (ASTEX THERAPEUTICS LIMITED, priority 2012, dated 2018).
